Article PMC10791652, “The adhesion GPCR GPR116/ADGRF5 has a dual function in pancreatic islets regulating somatostatin release and islet development” (Communications Biology, 2024)
One block for each molecule: values may come before it. Numbered stars: 1 amine (or outer) side, 2 acyl side, 3 side chain; on linkers, the order of the positions; unused ones are H or OH. Bridge positions count the residues as written; N and C are the ends. Square brackets hold non-standard residues; d marks the D form. Ends that are not written are not given here. Peptide text beside a SMILES is read from it. * marks the point of attachment. Leu(3R-OH,Nα-propionyl) = CCC(=O)N[C@H](C(=O)*)[C@H](O)C(C)C; X1 = CC(C)[C@@H](O[*:3])[C@H](N[*:1])C(=O)[*:2]; NMeT = CN[C@H](C(=O)O)[C@@H](C)O; dPhLac = O=C(O)[C@H](O)Cc1ccccc1; NMeA = CN[C@@H](C)C(=O)O; NMeDha = C=C(NC)C(=O)O

Experiments:
[1] = tested on: mock-transfected HEK293T cells; assay: Fura-2 Ca2+ imaging in mock-transfected HEK293T cells; format: cell-based; conditions: 1 mM peptide or 100 µM ATP
Method: (§1) Fura-2-based Ca^2+ imaging was performed in transfected HEK293T cells (Supplementary Experimental Procedures) and intact pancreatic islets using a monochromator-based imaging system, and the imaging software TILLvisION 4.0 (T.I.L.L. Photonics). Emitted fluorescence (excited at 340 and 380 nm) was acquired at intervals of 2 seconds and corrected for background fluorescence. HEK293T cells and islets were loaded with 5 µM fura-2 AM in standard bath solution containing 140 mM NaCl, 10 mM HEPES, 5 mM KCl, 2 mM CaCl2, 1 mM MgCl2, and 3 mM glucose for 30 or 60 min. HEK293T cells (25,000 cells/well) were seeded into 24-well plates on poly-L-lysine coated glass cover slips and were transiently transfected with plasmids encoding for GPR116 and GFP the next day. Ca^2+ imaging was carried out 72 h post transfection. HEK293T cells were exposed to p116sc, p116 (1 mM each), and ATP (100 µM) in standard bath solution. Pancreatic mouse islets (3 - 4 islets per coverslip) were transferred one day after preparation into 12-well plates on poly-L-lysine coated glass cover slips. 48 h after seeding islets were exposed to 1 mM p116sc, 1 mM p116, and 100 µM carbachol (CCh) in standard bath solution.

[2] = tested on: endogenous purinergic receptors; assay: Fura-2 Ca2+ imaging in HEK293T cells (ATP control); format: cell-based; conditions: 100 µM ATP
Method: as §1

[3] = tested on: muscarinic acetylcholine receptors; assay: Fura-2 Ca2+ imaging in intact pancreatic islets (carbachol positive control); format: cell-based, mouse; conditions: 100 µM carbachol, fura-2 ratio F340/F380
Method: as §1

Gαq/11 protein = assay: Somatostatin secretion from islets after pre-incubation with Gq inhibitor; format: cell-based, mouse; conditions: pre-incubation with FR900359, then 2 mM p116, high glucose, 30 min
Method: Equilibration of five islets was performed in KRB containing 2.8 mM glucose for 30 min at 37 °C in 96-well plates. If not mentioned otherwise, islets were stimulated with peptide solution or respective controls in KRB for 30 min at 37 °C. Islets were lysed with acid ethanol and supernatant as well as lysates kept frozen at −20 °C until measurement. To measure insulin the AlphaLISA technology (Perkin Elmer) was used according to the manufacturer’s protocol in 384-well OptiPlate microplates (Perkin Elmer) with the EnVision Multilabel Reader (Perkin Elmer). Somatostatin amounts were determined using either AlphaLISA (Perkin Elmer) or ELISA (Phoenix Pharmaceuticals). For reliable measurement protocol adaptions were necessary. For AlphaLISA these were as follows: increasing sample volumes to 35 µl/well, reduced bead volume of 5 µl/well, and an extended incubation period with donor beads of 90 min. For the ELISA measurement the sample incubation time was extended to over-night and the biotinylated peptide was diluted 1:5 to achieve reliable results.

[4] = tested on: growth hormone secretagogue receptor/ghrelin (GHS-R) receptor; assay: Fura-2 Ca2+ imaging in intact pancreatic islets (ghrelin); format: cell-based, mouse; conditions: 300 nM ghrelin

Molecule: Nc1ncnc2c1ncn2[C@@H]1O[C@H](COP(=O)(O)OP(=O)(O)OP(=O)(O)O)[C@@H](O)[C@H]1O [ATP]
intracellular Ca2+ response in mock-transfected cells [1]: strongly increased intracellular Ca2+ levels
intracellular Ca2+ transients in GPR116-transfected HEK293T cells [2]: induced

Ca2+ response in pancreatic islets [3]: strong Ca^2+ elevation
Molecule: C[N+](C)(C)CCOC(N)=O [CCh, carbachol]

Molecule: C=C1C(=O)N[C@@H](C)C(=O)N(C)[C@@H](C)C(=O)N[C@@H]([C@H](OC(=O)[C@@H](NC(=O)CC)[C@H](O)C(C)C)C(C)C)C(=O)N(C)[C@@H]([C@@H](C)OC)C(=O)O[C@H](C(C)C)[C@H](NC(C)=O)C(=O)O[C@H](Cc2ccccc2)C(=O)N1C [FR900359] (Ac-[X1][dPhLac][NMeDha]A[NMeA][X1](Leu(3R-OH,Nα-propionyl))[NMeT](Me); ester 1-C)
effect of Gq inhibitor on p116-induced somatostatin secretion (Gαq/11 protein): completely abolished somatostatin secretion

Molecule: ghrelin (GSSFLSPEHQRVQQRKESKKPPAKLQP; ends and bridges not checked; UniProt Q9UBU3 24-50, looked up)
Ca2+ response in insulin-expressing beta cells of islets ([4]; MIP-GFP mouse islets, EGFP-positive regions): absent in insulin-expressing beta cells
Ca2+ response in pancreatic islets ([4]; then 1 mM p116, MIP-GFP mouse islets): elicited Ca^2+ signals with partially overlapping localization
